Target: T1, LRRK2 (Homo sapiens, UniProt Q5S007)
T1 construct: LRRK2-NanoLuc fusion
Test: NanoBRET in-cell target engagement, competitive displacement of K-9 tracer in transfected HEK293 cells
Format: cell-based

T1 sequence (Q5S007 whole entry, the tested form may be a part): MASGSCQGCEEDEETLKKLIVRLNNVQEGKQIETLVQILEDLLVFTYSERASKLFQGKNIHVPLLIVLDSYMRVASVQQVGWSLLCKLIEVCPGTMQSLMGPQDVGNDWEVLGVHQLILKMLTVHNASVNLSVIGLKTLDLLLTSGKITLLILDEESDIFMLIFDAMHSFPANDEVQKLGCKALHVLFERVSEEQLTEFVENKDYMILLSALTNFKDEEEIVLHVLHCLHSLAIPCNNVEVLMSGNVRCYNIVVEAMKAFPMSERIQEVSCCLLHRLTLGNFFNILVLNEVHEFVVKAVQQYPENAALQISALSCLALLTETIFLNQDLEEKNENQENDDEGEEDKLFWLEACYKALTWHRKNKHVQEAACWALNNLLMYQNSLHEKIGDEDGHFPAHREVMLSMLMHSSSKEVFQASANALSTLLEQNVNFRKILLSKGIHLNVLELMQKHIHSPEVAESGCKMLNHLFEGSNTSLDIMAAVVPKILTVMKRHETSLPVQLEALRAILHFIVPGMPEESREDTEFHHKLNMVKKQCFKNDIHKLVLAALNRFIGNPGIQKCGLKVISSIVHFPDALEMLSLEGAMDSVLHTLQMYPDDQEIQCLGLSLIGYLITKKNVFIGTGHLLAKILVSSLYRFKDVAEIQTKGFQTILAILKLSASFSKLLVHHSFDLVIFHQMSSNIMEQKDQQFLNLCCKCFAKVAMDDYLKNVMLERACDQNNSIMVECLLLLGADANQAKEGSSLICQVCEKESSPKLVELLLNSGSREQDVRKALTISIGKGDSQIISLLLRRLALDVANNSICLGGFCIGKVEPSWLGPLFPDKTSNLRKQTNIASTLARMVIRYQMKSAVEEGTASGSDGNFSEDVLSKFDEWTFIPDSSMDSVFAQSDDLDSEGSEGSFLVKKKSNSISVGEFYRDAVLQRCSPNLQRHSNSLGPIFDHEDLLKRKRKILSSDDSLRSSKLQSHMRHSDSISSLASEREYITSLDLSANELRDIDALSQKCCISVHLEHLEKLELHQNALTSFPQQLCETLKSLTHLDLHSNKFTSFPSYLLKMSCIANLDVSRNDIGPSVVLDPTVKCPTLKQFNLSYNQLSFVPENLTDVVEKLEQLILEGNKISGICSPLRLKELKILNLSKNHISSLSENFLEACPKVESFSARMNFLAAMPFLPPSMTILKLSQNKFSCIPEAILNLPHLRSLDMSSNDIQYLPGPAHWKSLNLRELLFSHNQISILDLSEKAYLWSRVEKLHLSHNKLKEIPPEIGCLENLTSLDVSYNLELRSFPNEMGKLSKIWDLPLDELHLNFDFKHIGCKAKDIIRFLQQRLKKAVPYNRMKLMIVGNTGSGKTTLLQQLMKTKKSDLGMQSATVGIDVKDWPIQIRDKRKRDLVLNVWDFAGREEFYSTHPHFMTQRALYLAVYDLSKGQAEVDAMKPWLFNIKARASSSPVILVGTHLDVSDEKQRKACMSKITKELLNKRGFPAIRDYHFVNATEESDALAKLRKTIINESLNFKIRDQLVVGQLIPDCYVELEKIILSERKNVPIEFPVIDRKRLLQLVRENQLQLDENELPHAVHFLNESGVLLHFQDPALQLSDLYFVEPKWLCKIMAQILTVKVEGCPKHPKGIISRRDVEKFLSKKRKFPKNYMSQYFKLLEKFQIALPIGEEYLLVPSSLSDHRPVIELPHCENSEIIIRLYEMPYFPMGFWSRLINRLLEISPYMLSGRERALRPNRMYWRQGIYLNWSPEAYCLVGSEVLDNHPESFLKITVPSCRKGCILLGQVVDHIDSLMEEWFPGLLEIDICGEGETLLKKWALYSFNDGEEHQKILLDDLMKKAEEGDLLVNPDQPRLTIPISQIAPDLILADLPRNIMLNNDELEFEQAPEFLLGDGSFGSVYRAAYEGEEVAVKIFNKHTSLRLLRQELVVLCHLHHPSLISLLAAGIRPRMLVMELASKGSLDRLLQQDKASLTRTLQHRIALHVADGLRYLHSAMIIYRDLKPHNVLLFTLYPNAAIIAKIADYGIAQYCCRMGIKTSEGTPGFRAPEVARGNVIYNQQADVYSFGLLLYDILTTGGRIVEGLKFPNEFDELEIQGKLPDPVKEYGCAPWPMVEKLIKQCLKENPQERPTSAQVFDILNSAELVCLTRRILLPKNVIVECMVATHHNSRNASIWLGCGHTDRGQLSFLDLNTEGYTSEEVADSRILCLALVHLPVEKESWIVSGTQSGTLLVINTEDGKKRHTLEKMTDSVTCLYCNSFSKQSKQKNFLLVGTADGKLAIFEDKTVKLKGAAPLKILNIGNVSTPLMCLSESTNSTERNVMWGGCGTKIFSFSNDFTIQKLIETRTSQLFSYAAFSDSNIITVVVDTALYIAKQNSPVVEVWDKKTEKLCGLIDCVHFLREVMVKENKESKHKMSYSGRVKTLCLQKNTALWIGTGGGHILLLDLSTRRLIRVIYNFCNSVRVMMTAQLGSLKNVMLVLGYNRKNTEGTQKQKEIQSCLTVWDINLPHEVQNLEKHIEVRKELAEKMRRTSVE

With OSU13 as the substance, how does the EC50 read?
The EC50 was 216 nM.

Source: article PMC11383830, “TTK inhibitor OSU13 promotes immunotherapy responses by activating tumor STING” (JCI Insight, 2024)
